The conditions of data set [1]: Liquid; for mass density: 293.15 K, 101.33 kPa.
A short description of data set [2]: refractive index (Na D-line) (dimensionless). Conditions: 293.15 K; 101.33 kPa; Liquid.

Usually mass density stands for the mass of a sample divided by its volume. The vapor or sublimation pressure is the pressure of vapour in equilibrium with the condensed phase. In general, refractive index refers to the speed of light in vacuum divided by its phase velocity in the sample.

Numbers after ± are expanded uncertainties.

In the case of `CCCCCCC` [heptane], in data set [1], the mass density was determined as 683.8 ± 1.5 kg/m3. For the same compound, in data set [1] (369.75 K), the “vapor or sublimation pressure” value amounted to 95.75 ± 9 kPa. For the same compound, in data set [2], the refractive index is reported as 1.3876 ± 0.0017.

`Cc1ccccc1O` [2-methylphenol]: the mass density in data set [1] came out at 1046 ± 2.7 kg/m3. Also, in data set [1] (461.85 K), the “vapor or sublimation pressure” value was 95.75 ± 9.6 kPa. Besides, the refractive index in data set [2] came out at 1.5467 ± 0.0017.

In the case of `ClC(Cl)=C(Cl)Cl` [tetrachloroethene], in data set [1], the mass density is reported as 1625 ± 4.6 kg/m3. In data set [1] (392.25 K), the “vapor or sublimation pressure” value was 95.75 ± 9 kPa. In addition, the refractive index in data set [2] came to 1.505 ± 0.0017.

As to `ClC=C(Cl)Cl` [trichloroethene], the mass density in data set [1] is on record as 1464 ± 4.1 kg/m3. For the same compound, the “vapor or sublimation pressure” value in data set [1] (357.95 K) amounted to 95.75 ± 9 kPa. Besides, the refractive index in data set [2] came out at 1.4782 ± 0.0017.

Regarding `Cc1ccc(C)cc1` [1,4-dimethylbenzene], the mass density in data set [1] turned out to be 861 ± 2.1 kg/m3. Moreover, the “vapor or sublimation pressure” value in data set [1] (409.35 K) was determined as 95.75 ± 9 kPa. The refractive index in data set [2] is reported as 1.4858 ± 0.0017.

As for `ClC(Cl)C(Cl)Cl` [1,1,2,2-tetrachloroethane], the mass density in data set [1] is reported as 1593 ± 4.5 kg/m3. For the same compound, in data set [1] (417.35 K), the “vapor or sublimation pressure” value is 95.75 ± 9 kPa. Also, in data set [2], the refractive index is reported as 1.494 ± 0.0017.

In the case of `Cc1cccc(C)c1` [1,3-dimethylbenzene], in data set [1], the mass density amounted to 864.4 ± 2.1 kg/m3. The “vapor or sublimation pressure” value in data set [1] (410.35 K) came out at 95.75 ± 9 kPa. Further, the refractive index in data set [2] stood at 1.4972 ± 0.0017.

Regarding `Cc1ccccc1C` [1,2-dimethylbenzene], the mass density in data set [1] turned out to be 880.1 ± 2.2 kg/m3. In addition, the “vapor or sublimation pressure” value in data set [1] (415.55 K) is given as 95.75 ± 9 kPa. Also, the refractive index in data set [2] turned out to be 1.5055 ± 0.0017.

As to `ClCCCl` [1,2-dichloroethane], in data set [1], the mass density is listed as 1252.9 ± 3.4 kg/m3. Further, in data set [1] (355.25 K), the “vapor or sublimation pressure” value stood at 95.75 ± 9 kPa. Also, the refractive index in data set [2] was 1.4196 ± 0.0017.

Values taken from the NIST ThermoML archive (doi:10.1016/j.fluid.2005.09.012).
